Results published in US10183047B2, “Chromium-containing compositions in combination with Phyllanthus emblica and shilajit having synergistic effects for improving endothelial function and cardiovascular health” (Natreon, Inc., priority 2014, dated 2019).

Experiments:
Type in all cases: in vivo, human
[1] = tested on: high sensitivity C-reactive protein (hsCRP); test: hsCRP by ELISA, type 2 diabetics; conditions: for hsCRP: DM, 400 mcg; for Mean percentage change in hsCRP / hsCRP Post Tt / hsCRP Pre Tt: type 2 diabetics (Example 3), chromium products 400 mcg; for Mean percentage change in hsCRP: 12 week treatment; for hsCRP Post Tt: post-treatment, 12 weeks; for hsCRP Pre Tt: pre-treatment
Experimental: The present clinical study is a prospective, randomized, double blind, placebo-controlled study. Patients of either sex, aged 30-65 years, fasting plasma glucose of 110-126 mg/dl, a glycosylated hemoglobin (HbA1c) between 6.5% and 8% and taking stable dose of anti-diabetic treatment (metformin 1500-2000 mg/day) for the past 8 weeks prior to the screening visit; and having endothelial dysfunction defined as ≤6% change in reflection index (RI) on post salbutamol challenge test were included in the study. Patients with severe uncontrolled hyperglyceamia, uncontrolled hypertension, cardiac arrhythmia, impaired hepatic or renal function, history of malignancy or stroke, smoking, chronic alcoholism, any other serious disease requiring active treatment and treatment with any other herbal supplements, were excluded from the study.
After screening, all the eligible subjects were randomized to receive either one of the three treatments orally for duration of 12 weeks—Group1—one capsule of Crominex®3+, 200 mcg once daily, Group 2—one capsule Crominex®3+, 400 mcg once daily; Group 3—one capsule of placebo once daily.
Subjects were required for follow up at 4, 8 and 12 weeks of therapy. At each visit they were evaluated for efficacy and safety. Pharmacodynamic evaluation for endothelial function was conducted at every visit. Blood samples were collected for evaluation of biomarkers before and at the end of treatment. Safety lab investigations for hematological, hepatic and renal biochemical parameters were conducted before and at the end of the study and also as and when required (in case of any adverse drug reaction (ADR). Subjects were enquired for the presence of ADR and the same was recorded in the case report form. Compliance to therapy was assessed by pill count method.
(§1) Nitric oxide, MDA, Glutathione and levels were estimated spectrophotometrically as follows. Malondialdehyde (MDA) levels were determined as described in Vidyasagar, et al., “Oxidative stress and antioxidant status in acute organophosphorous insecticide poisoning,” Indian J. Pharmacol. (April 2004) 36(2): 76-79. Glutathione levels were determined as described in G. L. Ellman, Arch. Biochem. Biophys. (1959) 82: 70-77 (original determination). Nitric oxide levels were estimated spectrophotometrically as described in Miranda, et al., “A Rapid, Simple Spectrophotometric Method for Simultaneous Detection of Nitrate and Nitrite,” NITRIC OXIDE: Biology and Chemistry (2001) Vol. 5, No. 1, pp. 62-71. hsCRP (high sensitivity C-reactive protein) was determined by ELISA method.
(§2) When the results with Crominex® 3+ in the above two examples were highly significant, especially with the 400 mcg once daily dose in type 2 diabetics, two more clinical studies (EXAMPLES 3 & 4) were conducted at the same institute, following the same methodology as described earlier, on the individual components of Crominex® 3+, i.e., chromium chloride and Phyllanthus emblica+Shilajit, and other chromium supplements available in the market, i.e., chromium picolinate, chromium polynicotinate and chromium dinicocysteinate, in type 2 diabetics as well as in subjects with metabolic syndrome symptoms.

[2] = Blood pressure, type 2 diabetics; conditions: type 2 diabetics (Example 3), chromium products 400 mcg; for Diastolic blood pressure Post Tt / Systolic blood pressure Post Tt: post-treatment, 12 weeks; for Diastolic blood pressure Pre Tt / Systolic blood pressure Pre Tt: pre-treatment
Experimental: as §2

[3] = tested on: high sensitivity C-reactive protein (hsCRP); test: hsCRP by ELISA, metabolic syndrome subjects; design: hsCRP Pre Tt / hsCRP Post Tt: unit not given here; conditions: for hsCRP: MS, 400 mcg; for Mean percentage change in hsCRP / hsCRP Post Tt / hsCRP Pre Tt: metabolic syndrome subjects (Example 4), chromium products 400 mcg; for Mean percentage change in hsCRP: after 12 weeks treatment; for hsCRP Post Tt: after 12 weeks of treatment; for hsCRP Pre Tt: pre-treatment
Experimental: as §1
(§3) Patients included in the study, were of either gender, aged 30-68 years, having endothelial dysfunction defined as ≤6% change in reflection index (RI) on post salbutamol challenge test and central obesity as defined by The International Diabetes Federation guidelines, dated 2006, and any two of the following conditions: […]
(§4) Subjects were reviewed for follow up at 4 weeks, 8 and 12 weeks of therapy. At each visit they were evaluated for efficacy and safety. Pharmacodynamic evaluation for endothelial function was conducted at baseline and end of treatment. Blood samples were collected for evaluation of biomarkers before and at end of treatment. Safety lab investigations for hematological, hepatic and renal biochemical parameters were conducted before and at the end of the study and also as and when required (in case of any adverse drug reaction (ADR)). Subjects were enquired for the presence of ADR and the same was recorded in the case report form. Compliance to therapy was assessed by pill count method.
(§5) Assessment of endothelial function, biomarkers, safety parameters and primary and secondary efficacy parameters and data analysis were performed as described under the study with type 2 diabetic subjects in Example 1.
as §2

[4] = tested on: lipid profile; test: Lipid profile (TC, HDL-C, LDL-C, TG), metabolic syndrome subjects; conditions: for HDL / LDL / TC / TG: MS; for HDL / LDL / TC / TG / LDL-C, mean percentage change: 400 mcg; for HDL-C Post Tt / LDL-C Post Tt / Mean percentage change in HDL-C / Mean percentage change in Total Cholesterol / Mean percentage change in Triglycerides / Total Cholesterol Post Tt / Triglycerides Post Tt / HDL-C Pre Tt / LDL-C Pre Tt / Total Cholesterol Pre Tt / Triglycerides Pre Tt: metabolic syndrome subjects (Example 4), chromium products 400 mcg; for HDL-C Post Tt / LDL-C Post Tt / Mean percentage change in HDL-C / Mean percentage change in Total Cholesterol / Mean percentage change in Triglycerides / Total Cholesterol Post Tt / Triglycerides Post Tt: after 12 weeks of treatment; for HDL-C Pre Tt / LDL-C Pre Tt / Total Cholesterol Pre Tt / Triglycerides Pre Tt: pre-treatment; for LDL-C, mean percentage change: mean percentage change after 12 weeks of treatment, Example 4
Description: All the subjects had undergone complete physical examination, safety lab evaluations at baseline and at the end of the treatment. Samples were collected after an overnight fast of 12 hrs after the last dose of medication for determination of hemoglobin, glycosylated hemoglobin (HbA1c), blood urea, serum creatinine, liver function, lipid profile (Total cholesterol, High density lipoprotein cholesterol (HDL-C), low density lipoprotein cholesterol (LDL-C) using appropriate standard techniques.
as §3, §4, §5, §2

[5] = Blood pressure, metabolic syndrome subjects; conditions: metabolic syndrome subjects (Example 4), chromium products 400 mcg; for Diastolic blood pressure Post Tt / Systolic blood pressure Post Tt: after 12 weeks of treatment; for Diastolic blood pressure Pre Tt / Systolic blood pressure Pre Tt: pre-treatment
Description: Patients included in the study, were of either gender, aged 30-68 years, having endothelial dysfunction defined as ≤6% change in reflection index (RI) on post salbutamol challenge test and central obesity as defined by The International Diabetes Federation guidelines, dated 2006, and any two of the following conditions:
After screening, all the eligible subjects were randomized to receive either one of the three treatments orally for duration of 12 weeks: group 1—one capsule of Crominex®3+ 200 mcg once daily; group 2—one capsule 400 mcg once daily; group 3—one capsule of Placebo once daily.
as §4, §2

Row | Compound | hsCRP [1] [%] | Mean percentage change in hsCRP [1] | hsCRP Post Tt [1] | hsCRP Pre Tt [1] [mg/L] | Diastolic blood pressure Post Tt [2] [NS mmHg] | Systolic blood pressure Post Tt [2] [NS mmHg] | Diastolic blood pressure Pre Tt [2] [mmHg] | Systolic blood pressure Pre Tt [2] [mmHg] | hsCRP [3] [%] | Mean percentage change in hsCRP [3] [%] | HDL [4] [%] | LDL [4] [%] | TC [4] [%] | TG [4] [%] | HDL-C Post Tt [4] | LDL-C Post Tt [4] | Mean percentage change in HDL-C [4] [%] | Mean percentage change in Total Cholesterol [4] [%] | Mean percentage change in Triglycerides [4] [%] | Total Cholesterol Post Tt [4] | other results
1 | O.O.O.O.O.O.[Cl][Cr]([Cl])[Cl] [Chromium chloride, Chromium chloride (CrCl3.6H2O)] | −9.92 | −9.92 ± 3.86 #$NS % | 2.46 ± 0.55 mg/L | 2.72 ± 0.53 | 77.16 ± 1.68 | 117.26 ± 1.52 | 77.05 ± 1.68 | 117.37 ± 2.50 | −11 | −10.99 ± 3.29 | −1.08 | 0.79 | 0.49 | 0.92 | 36.79 ± 5.14 NS mg/dl | 117.37 ± 9.13 NS mg/dl | −1.08 ± 3.45 | 0.49 ± 1.30 | 0.92 ± 1.43 | 189.21 ± 10.80 NS mg/dl | Triglycerides Post Tt [4]: 175.26 ± 9.70 mg/dL; HDL-C Pre Tt [4]: 37.21 ± 5.16 mg/dL; LDL-C Pre Tt [4]: 116.42 ± 9.75 mg/dL; Total Cholesterol Pre Tt [4]: 188.37 ± 11.78 mg/dL; Triglycerides Pre Tt [4]: 173.68 ± 9.70 mg/dL; Diastolic blood pressure Post Tt [5]: 79.8 ± 2.66 NS mmHg; Systolic blood pressure Post Tt [5]: 122.9 ± 3.42 NS mmHg; Diastolic blood pressure Pre Tt [5]: 80.6 ± 2.67 mmHg; Systolic blood pressure Pre Tt [5]: 124.7 ± 3.35 mmHg
2 | chromium dinicocysteinate | −8.61 | −8.61 ± 12.40 #@NS % | 2.56 ± 0.58 @ mg/L | 2.79 ± 0.53 | 76.78 ± 1.22 | 118.11 ± 2.11 | 77.00 ± 1.41 | 118.89 ± 3.08 | −13.76 | −13.76 ± 4.64 | −0.71 | 2.11 | 1.4 | 1.04 | 36.61 ± 5.67 NS mg/dl | 113.64 ± 14.96 mg/dL | −0.71 ± 3.95 | 1.40 ± 1.03 | 1.04 ± 1.06 | 184.50 ± 12.49 mg/dL | hsCRP Post Tt [3]: 2.24 ± 0.49; hsCRP Pre Tt [3]: 2.58 ± 0.48; LDL-C, mean percentage change [4]: 2.11%; Triglycerides Post Tt [4]: 171.22 ± 6.92 mg/dL; HDL-C Pre Tt [4]: 36.83 ± 5.22 mg/dL; LDL-C Pre Tt [4]: 111.22 ± 14.34 mg/dL; Total Cholesterol Pre Tt [4]: 181.94 ± 12.10 mg/dL; Triglycerides Pre Tt [4]: 169.44 ± 6.24 mg/dL; Diastolic blood pressure Post Tt [5]: 78.8 ± 2.67 NS mmHg; Systolic blood pressure Post Tt [5]: 122.0 ± 2.66 NS mmHg; Diastolic blood pressure Pre Tt [5]: 80.0 ± 2.99 mmHg; Systolic blood pressure Pre Tt [5]: 124.8 ± 3.37 mmHg
3 | chromium polynicotinate | −11.45 | −11.45 ± 12.28 #NS % | 2.43 ± 0.49 mg/L | 2.75 ± 0.47 | 79.7 ± 2.85 | 124.1 ± 4.88 | 81.2 ± 3.07 | 125.9 ± 5.17 | −12.34 | −12.34 ± 2.16 | −1.55 | 1.86 | 0.95 | 0.83 | 36.20 ± 5.15 NS mg/dl | 111.95 ± 12.95 mg/dL | −1.55 ± 4.17 | 0.95 ± 1.33 | 0.83 ± 1.22 | 182.75 ± 14.03 mg/dL | hsCRP Post Tt [3]: 2.42 ± 0.54; hsCRP Pre Tt [3]: 2.76 ± 0.58; LDL-C, mean percentage change [4]: 1.86%; Triglycerides Post Tt [4]: 173.00 ± 9.33 mg/dL; HDL-C Pre Tt [4]: 36.85 ± 5.48 mg/dL; LDL-C Pre Tt [4]: 109.88 ± 12.76 mg/dL; Total Cholesterol Pre Tt [4]: 181.05 ± 13.98 mg/dL; Triglycerides Pre Tt [4]: 171.60 ± 9.43 mg/dL; Diastolic blood pressure Post Tt [5]: 79.7 ± 2.85 NS mmHg; Systolic blood pressure Post Tt [5]: 124.1 ± 4.88 NS mmHg; Diastolic blood pressure Pre Tt [5]: 81.2 ± 3.07 mmHg; Systolic blood pressure Pre Tt [5]: 125.9 ± 5.17 mmHg
4 | chromium picolinate | −18.9 | −18.90 ± 7.04@$NS % | 2.22 ± 0.64 mg/L | 2.70 ± 0.63 | 76.32 ± 2.14 | 117.47 ± 2.82 | 76.95 ± 2.70 | 118.63 ± 2.75 | −19.45 | −19.45 ± 2.98 | 2.1 | −2.19 | −1.18 | −1.07 | 37.84 ± 4.45@ mg/dl | 111.55 ± 12.58 mg/dL | 2.10 ± 2.84 | −1.18 ± 0.90 | −1.07 ± 1.20 | 182.84 ± 12.60 mg/dL | hsCRP Post Tt [3]: 2.15 ± 0.40; hsCRP Pre Tt [3]: 2.67 ± 0.44; LDL-C, mean percentage change [4]: -2.19%; Triglycerides Post Tt [4]: 167.26 ± 10.71 mg/dL; HDL-C Pre Tt [4]: 37.11 ± 4.32 mg/dL; LDL-C Pre Tt [4]: 114.13 ± 12.80 mg/dL; Total Cholesterol Pre Tt [4]: 185.05 ± 13.03 mg/dL; Triglycerides Pre Tt [4]: 169.11 ± 11.02 mg/dL; Diastolic blood pressure Post Tt [5]: 78.1 ± 2.26 NS mmHg; Systolic blood pressure Post Tt [5]: 121.5 ± 4.15 NS mmHg; Diastolic blood pressure Pre Tt [5]: 79.2 ± 3.58 mmHg; Systolic blood pressure Pre Tt [5]: 123.1 ± 5.39 mmHg
